In patent US20080206744A1, “Functional Genomics and Gene Trapping in Haploid or Hypodiploid Cells” (priority 2004, published 2008):

Tested on: palmitoylation of GAP43:GFP in MDCK cells
Assay: Localization of the palmitoylation reporter GAP43:GFP at the plasma membrane, by microscopy and HTM algorithm
Assay type: cell-based
Conditions: for effect on palmitoylation / PM localization of GAP43:GFP: MDCK cells transiently transfected with GAP43:GFP, incubation in 100 μM 2BP
Description: FIGS. 2A-2D provide characterization of the reporter of S-palmitoylation. […] Cells in FIGS. 2B, 2C and 2D are representative of many having the same morphology.
FIGS. 5A-5D illustrate the simple case of quantifying whether or not GAP43:GFP is on the PM or in the cytoplasm using the HTM algorithm. In this analysis, MDCK cells (the same images as presented in FIGS. 2A-2D), transiently transfected with GFP alone are presented in FIG. 5A; transiently transfected with GAP43:GFP are presented in FIG. 5B; and transiently transfected with GAP43:GFP in the presence of 100 μM 2BP are presented in FIG. 5C.
FIG. 6 presents a quantitative analysis of the time course of translocation of GAP43:GFP from the plasma membrane in response to 100 μM 2BP: residence half life of palmitoylation. MDCK cells stably expressing GAP43:GFP were exposed to 100 μM 2BP for 6 hours. During this time, the same field of view of cells was imaged repeatedly in two channels Hoechst/nucleus (see FIG. 6A) and GFP/PM (see FIG. 6B) on the EIDAQ100 (the three images: 6A, 6B and 6C are at time 0). The PM mask (green lines) defined by the program is shown in FIG. 6C; the nucleus is delimited by red lines. By determining the average fluorescence intensity of the area defined by the PM mask (see FIG. 6D), PM labeling was reduced by 80% from the maximum (or starting) density during the 6 hour period.
This algorithm is able to make a simple binary decision of whether GAP43:GFP is on the PM or in the cytoplasm (see FIG. 5) as well as fine incremental determinations (see FIG. 6) of the quantity of fluorescence on the PM, thereby extending the capability beyond what is necessary to score the primary screen for trapped genes. Two important questions are answered here. Data in FIGS. 5A-5D illustrate that the algorithm is sufficient to ensure success in a screen to find genes critical in the pathway for palmitoylation of the reporter in an ICR-2A reporter cell line.

CCCCCCCCCCCCCCC(Br)C(=O)O (stereo not drawn) [2BP, 2-bromopalmitate]
reduction of PM labeling (average fluorescence intensity of the area defined by the PM mask) from the maximum (starting) density (MDCK cells stably expressing GAP43:GFP, 100 μM 2BP, 6 hour period, EIDAQ100 imaging): 80% | effect on palmitoylation / PM localization of GAP43:GFP: localization to the PM has been inhibited | effect on palmitoylation / PM localization of GAP43:GFP (listed as 2-bromopalmitate): palmitoylation is inhibited
